Entries after “also recorded” stand apart in the source; their conditions may differ. Like-named read-outs stand apart in the source and are kept apart here.
What was measured:
CAL27 = test: XTT cell viability assay, CAL27 HNSCC cells; format: cell-based, human; conditions: for IC50: Homo sapiens, CAL-27
Method: (§1) Fifty microliters of sodium 3′-[1-phenylaminocarbonyl)-3,4-tetrazolium]-bis(4-methoxy-6-nitro) benzene sulfonic acid hydrate (XTT) reagent was added to each well. The assay is based on the cleavage of the yellow tetrazolium salt XTT to form an orange formazan dye by metabolically active cells. This bio-reduction occurs in viable cells only and is related to NAD(P)H production through glycolysis. Therefore, the amount of formazan dye measured at 490 nm directly correlated with the number of metabolically active cells reflecting cell proliferation and viability. Each assay was performed in quadruplicate.

786-O = test: XTT cell viability assay, 786-O RCC cells; format: cell-based, human; conditions: for IC50: Homo sapiens, 786-0
Method: as §1

OCI-AML2 = test: XTT cell viability assay, OCI-AML2 AML cells; format: cell-based, human; conditions: Homo sapiens, OCI-AML2, 48 h, SD 10%, mean of three experiments, read-out: IC50 L2 (AML)
Method: as §1

OCI-AML3 = test: XTT cell viability assay, OCI-AML3 AML cells; format: cell-based, human; conditions: Homo sapiens, OCI-AML-3, 48 h, SD 10%, mean of three experiments, read-out: IC50 L3 (AML)
Method: as §1

K562 = test: XTT cell viability assay, K562 CML cells; format: cell-based, human; conditions: Homo sapiens, K562, 48 h, SD 10%, mean of three experiments
Method: as §1

CXCR2 = target: T1, CXCR2 (Homo sapiens, UniProt P25025); test: Membrane-associated CXCR2 level in HuVEC by flow cytometry; format: cell-based; conditions: CXCL8 25 ng/ml 1 h, C29 2.5 µmol/L
T1 construct: CXCR1/2 are expressed on endothelial cells and participate in ELR^+CXCL-mediated angiogenesis; endogenous in cells; host or cells: HuVEC
T1 sequence (P25025 whole entry): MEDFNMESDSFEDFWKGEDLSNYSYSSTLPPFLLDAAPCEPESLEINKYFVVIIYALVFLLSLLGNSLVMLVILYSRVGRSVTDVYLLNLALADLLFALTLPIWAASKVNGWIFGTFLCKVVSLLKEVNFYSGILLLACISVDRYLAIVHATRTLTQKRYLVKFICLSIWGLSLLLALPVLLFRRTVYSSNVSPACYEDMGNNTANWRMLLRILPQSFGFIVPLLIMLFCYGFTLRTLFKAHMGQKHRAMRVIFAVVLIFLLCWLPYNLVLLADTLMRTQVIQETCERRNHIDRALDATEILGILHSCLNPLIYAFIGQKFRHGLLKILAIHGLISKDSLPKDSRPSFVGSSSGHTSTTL
Method: CXCR2 measurement: After stimulation, cells were washed with PBS and stained with the CXCR2-PE antibody (Miltenyi) for 30 min at room temperature. Fluorescence was measured using the FL2 (PE) channels of a fluorescence-activated cell sorter apparatus (Calibur cytometer).

HuVEC = test: Boyden chamber migration assay; format: cell-based, human; conditions: CXCL7 50 ng/ml, 2.5 µmol/L compound
Method: CXCL7 or VEGFA-stimulated chemotaxis assays were monitored using modified Boyden chambers containing polycarbonate membranes (8-μm pores, Transwell; Corning, Sigma). Cells were seeded onto the upper side of the filters and chambers were placed on 24-well plates containing CXCL7 (50ng/ml) or VEGFA (50ng/ml). Cell migration was followed for 24 h at 37°C in 5% CO2. Migratory cells on the lower membrane surface were fixed in 3% paraformaldehyde, stained with 0.1% crystal violet.

[1] = system: ERK/MAP Kinase signaling pathway; test: p-ERK immunoblotting in HuVEC; format: cell-based, human; conditions: 5 µM C29 1 h, CXCL5 50 ng/ml 10 min
Method: (§2) Cells were lysed in buffer containing 3% SDS, 10% glycerol and 0.825 mM Na2HPO4. 30 to 50 μg of proteins separated on 10% SDS-PAGE, transferred onto a PVDF membrane and then exposed to the appropriate antibodies. Proteins were visualized with the ECL system using horseradish peroxidase-conjugated anti-rabbit or anti-mouse antibodies.

[2] = system: ERK/MAP Kinase and PI3K/AKT signaling pathways; test: p-ERK and p-AKT immunoblotting in RCC and HNSCC cells; format: cell-based, human; conditions: naive and resistant RCC and HNSCC cells, 2.5 µM, 1 h to 48 h
Method: as §2

[3] = system: 786, 786R, CAL27 and CAL27R cells; test: Apoptosis analysis (annexin-V/PI flow cytometry); format: cell-based, human; conditions: sensitive and resistant cells, 2.5 µM, 48 h
Method: Apoptosis analysis: After stimulation, cells were washed with ice-cold PBS and were stained with the annexin-V-fluo staining kit (Roche, Meylan, France) according to the manufacturer's procedure. Fluorescence was measured using the FL2 (AV) and FL3 (propidium iodide, PI) channels of a fluorescence-activated cell sorter apparatus (Calibur cytometer).

caspase 3 = test: Caspase 3 activity assay; format: cell-based, human; conditions: 786, 786R, CAL27, CAL27R; 2.5 and 5 µM, 48 h
Method: Caspase assays have already been described. Briefly, the caspase 3 activity was assessed in quadruplicate using z-DEVD-AMC as substrate and the fluorescence were assessed.

[4] = In vitro (in cellulo) stability assay; format: in vitro ADME, human; conditions: 786-O cells, 2.5 µM, 24 h at room temperature, UPLCMS/MS
Method: The in vitro stability was determined as followed: 786-O cells were treated with 2.5 µM of compound C29 for the defined time, then lysed with methanol. The lysates were filtered and analyzed by UPLCMS/MS.

CAL33 = test: Ectopic model of HNSCC (CAL33 xenograft); format: in vivo, nude (nu/nu) female mice
Method: One microgram of total RNA was used for the reverse transcription, using the QuantiTect Reverse Transcription kit (QIAGEN, Hilden, Germany), with blend of oligo (dT) and random primers to prime first-strand synthesis. SYBR master mix plus (Eurogentec) was used for qPCR. The mRNA level was normalized to 36B4 mRNA. The sequences of oligo nucleotides used in our experiments are describe in Table S1.
(§3) These studies were carried out in strict accordance with the recommendations in the Guide for the Care and Use of Laboratory Animals. Our experiments were approved by the ''Comité National Institutionnel d'Ethique pour l'Animal de Laboratoire'' (reference: PEA-255 and PEA-277). Cells were injected subcutaneously into the flank of 5-week-old nude (nu/nu) female mice (Janvier). When the tumor reached 100 mm^3, mice were treated. The tumor volume was determined with a caliper (v = L*l2*0.5).
One million CAL33 were injected subcutaneously.
Sections of formol-fixed and paraffin-embedded tumors were incubated with monoclonal anti-Ki67 (clone MIB1, DAKO) or anti-CD31 (clone MEC 13.3, BD Pharmingen) antibodies. A biotinylated secondary antibody (DAKO) was applied and binding was detected with the substrate diaminobenzidine against a hematoxylin counterstain.

786-O cells = test: Ectopic model of RCC (786-O xenograft); format: in vivo, nude (nu/nu) female mice; conditions: C29 100 µg i.p. three per week; danirixin 200 µg three times a week; sunitinib 50 mg/kg oral gavage five times a week
Method: as §3
2- Seven million 786-O cells were injected subcutaneously.

[5] = XTT, 1 to 10 µM 48 h, 2.5 µM 24 to 96 h
[6] = CAL33 xenograft, 100 mg/kg gavage

O=C(Nc1cccc(Cl)c1)Nc1nc2ccc([N+](=O)[O-])cc2s1 [C29]
IC50 (CAL27; CXCR1+/CXCR2+, read-out: IC50 CAL27): 2500 nM | IC50 (CAL27; XTT assay, 48 h, SD 10%, mean of three experiments, read-out: IC50 27 (HNSCC)): 2500 nM | Selectivity index CAL27 (CAL27; SI = IC50 in normal cells (15S)/IC50 in CAL27): 5 | effect on CAL27 HNSCC cell viability compared with cisplatin (CAL27; [5]): greater than that of cisplatin | IC50 (786-O; CXCR1+/CXCR2+, read-out: IC50 786-O): 2000 nM | IC50 (786-O; XTT assay, 48 h, SD 10%, mean of three experiments, read-out: IC50 786 (Kidney RCC)): 2000 nM | Selectivity index 786-O (786-O; SI = IC50 in normal cells (15S)/IC50 in 786-O): 6.25 | viability of sensitive 786-O RCC cells compared with sunitinib (786-O; [5]): as efficiently as sunitinib | IC50 (OCI-AML2): 5 µM | IC50 (OCI-AML3): 4 µM | IC50 (K562): 2000 nM | CXCR2 levels at the plasma membrane (CXCR2): increased | CXCL7-dependent migration of HuVECs (HuVEC): decreased | basal and CXCL5-dependent ERK/MAP Kinase signaling (p-ERK) [1]: inhibition | ERK/MAP Kinase and PI3K/AKT signaling pathways (p-ERK, p-AKT) [2]: inhibited | cell death (annexin-V/PI) [3]: induced cell death | caspase 3 activity (caspase 3): increase | stability in cellulo (degradation) [4]: No degradation; also recorded: absence of degradation | mRNA level of murine CD31, experimental HNSCC (CAL33; CAL33 xenograft): decreased | decrease in the tumor weight, HNSCC (CAL33; [6]): 65% | proliferation marker Ki-67, experimental HNSCC (CAL33; [6]): decreased | weight loss of the animals, HNSCC model (CAL33; [6]): did not observe any weight loss | decrease of the tumor volume at the end of the experiment, HNSCC (CAL33; CAL33 xenograft, 100 mg/kg gavage five times a week for two weeks): more than 65% | PI3K/AKT and ERK pathways in tumor lysates, experimental HNSCC (CAL33; immunoblotting, CAL33 xenograft): both pathways | efficacy on experimental HNSCC compared with danirixin and cisplatin (CAL33; oral gavage 100 mg/kg five times a week): more efficient than danirixin, at the same dose, or than the reference treatment with cisplatin | mRNA levels of ERL+CXCL cytokines, experimental HNSCC (CAL33; qPCR, CAL33 xenograft): Only CXCL5 was decreased | efficacy on tumor growth, 786-O xenograft (786-O cells): as efficient as a dose of 50 mg/kg administered by oral gavage
